Measurements published in article PMC8445441, “Elucidating the mechanism by which synthetic helper peptides sensitize Pseudomonas aeruginosa to multiple antibiotics” (PLoS Pathogens, 2021).
“And” between values parts separate entries of the source, which are not always exact repeats. Equal values may be shown once. Read-outs that look alike come from different tables or passages of the source.

Assays:
P. aeruginosa PAO1 = assay: microbe, parasite or virus in culture; conditions: for MIC: Pseudomonas aeruginosa
In short: (§1)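 CLSI broth dilution; MHB; ~1 × 10^6 CFU/mL suspension mixed equal volume with drug; 37 °C for 18 h; visual read; triplicate. Broth sometimes supplemented with PG, PE, PC, CL, LPS, MgCl2, CaCl2 or PAβN.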

P. aeruginosa AUMC-Pa-3 = assay: microbe, parasite or virus in culture; conditions: strain AUMC-Pa-3
In short: as §1

P. aeruginosa AUMC-Pa-6 = assay: microbe, parasite or virus in culture; conditions: strain AUMC-Pa-6
In short: as §1

P. aeruginosa AUMC-Pa-4 = assay: microbe, parasite or virus in culture; conditions: strain AUMC-Pa-4
In short: as §1

P. aeruginosa AUMC-Pa-5 = assay: microbe, parasite or virus in culture; conditions: strain AUMC-Pa-5
In short: as §1

P. aeruginosa HM-214 = conditions: strain HM-214; antibiotic + D-11 (MICb/MICbc 128/4)
In short: as §1

P. aeruginosa AUMC-Pa-2 = conditions: strain AUMC-Pa-2; antibiotic + D-11 (MICb/MICbc 64/4)
In short: as §1

P. aeruginosa AUMC-Pa-1 = conditions: strain AUMC-Pa-1; antibiotic + D-11 (MICb/MICbc 128/4)
In short: as §1

[1] = tested on: clinical P. aeruginosa isolates; assay: microbe, parasite or virus in culture; conditions: Pseudomonas aeruginosa, 18 h, antibiotic alone
In short: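 MIC is the lowest drug concentration showing no visible growth after 18 h at 37 °C. Two-fold dilutions in MHB were combined with an equal volume of bacterial suspension (about 1 × 10^6 CFU/mL), following CLSI broth microdilution, in triplicate.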

P. aeruginosa NR-31040 = assay: microbe, parasite or virus in culture; design: MICa: MIC of the antibiotic / MICac: MIC of the antibiotic in the combination: unit not given beside the values; conditions: strain NR-31040
In short: as §1

P. aeruginosa PAK = assay: microbe, parasite or virus in culture; design: MICa: MIC of the antibiotic / MICac: MIC of the antibiotic in the combination: unit not given beside the values; conditions: strain PAK
In short: as §1

P. aeruginosa NR-31041 = assay: microbe, parasite or virus in culture; design: MICa: MIC of the antibiotic / MICac: MIC of the antibiotic in the combination: unit not given beside the values; conditions: strain NR-31041
In short: as §1

P. aeruginosa PA14 = assay: microbe, parasite or virus in culture; design: MICa: MIC of the antibiotic / MICac: MIC of the antibiotic in the combination: unit not given beside the values; conditions: strain PA14
In short: as §1

P. aeruginosa ATCC27853 = assay: microbe, parasite or virus in culture; design: MICa: MIC of the antibiotic / MICac: MIC of the antibiotic in the combination: unit not given beside the values; conditions: strain ATCC27853
In short: as §1

[2] = antibiotic + D-11 (MICb/MICbc 128/4)
[3] = antibiotic alone, unit not given
[4] = with D-11 at MICbc 4, unit not given
[5] = antibiotic + D-11 (MICb/MICbc 64/4)

For `CC[C@H]1OC(=O)[C@H](C)[C@@H](O[C@H]2C[C@@](C)(OC)[C@@H](O)[C@H](C)O2)[C@H](C)[C@@H](O[C@@H]2O[C@H](C)C[C@H](N(C)C)[C@H]2O)[C@](C)(O)C[C@@H](C)CN(C)[C@H](C)[C@@H](O)[C@]1(C)O` [Azithromycin], the MIC (P. aeruginosa PAO1; PAO1, read-out: MIC for azithromycin, azithromycin alone, PAO1) was 128 µM, the MIC (P. aeruginosa PAO1; PAO1, read-out: MIC of AZM, initial bacterial density 10^3 CFU/mL) was 64 µM and the MIC (P. aeruginosa PAO1; PAO1, read-out: MIC of AZM, initial bacterial density 10^4 CFU/mL) was 64 µM. For the same molecule, the MIC (P. aeruginosa PAO1; PAO1, read-out: MIC of AZM, initial bacterial density 10^5 CFU/mL) was 128 µM, the MIC (P. aeruginosa PAO1; PAO1, read-out: MIC of AZM, initial bacterial density 10^6 CFU/mL) was 128 µM and the “MICa: the MIC of antibiotics” value (P. aeruginosa PAO1; S1 Table, macrolide alone, PAO1) was 128 µM. For the same molecule, the “MICa: the MIC of azithromycin” value (P. aeruginosa PAO1; azithromycin alone, PAO1, broth microdilution in MHB, 18 h, 37 °C, triplicate) was 128/128 μM and 128 μM, the FICI (P. aeruginosa AUMC-Pa-3; [2]) was 0.094 and the “MICa: MIC of the antibiotic” value (P. aeruginosa AUMC-Pa-3; [3]) was 128. The “MICac: MIC of the antibiotic in the combination” value (shortened to “MICac: MIC of the antibiotic”) (P. aeruginosa AUMC-Pa-3; [4]) was 8, the FICI (P. aeruginosa AUMC-Pa-6; [5]) was 0.313 and the “MICa: MIC of the antibiotic” value (P. aeruginosa AUMC-Pa-6; [3]) was 128. The “MICac: MIC of the antibiotic” value (P. aeruginosa AUMC-Pa-6; [4]) was 32, the FICI (P. aeruginosa AUMC-Pa-4; [2]) was 0.281 and the “MICa: MIC of the antibiotic” value (P. aeruginosa AUMC-Pa-4; [3]) was 128. The “MICac: MIC of the antibiotic” value (P. aeruginosa AUMC-Pa-4; [4]) was 32, the FICI (P. aeruginosa AUMC-Pa-5; [5]) was 0.313 and the “MICa: MIC of the antibiotic” value (P. aeruginosa AUMC-Pa-5; [3]) was 128. For the same molecule, the “MICac: MIC of the antibiotic” value (P. aeruginosa AUMC-Pa-5; [4]) was 32, the FICI (P. aeruginosa HM-214) was 0.281 and the FICI (P. aeruginosa AUMC-Pa-2) was 0.313. For the same molecule, the FICI (P. aeruginosa AUMC-Pa-1) was 0.094, the MIC ([1]; read-out: Antibiotic sensibility (MIC) of clinical P. aeruginosa isolate AUMC-Pa-1, strain AUMC-Pa-1) was 128 µM and the MIC ([1]; read-out: Antibiotic sensibility (MIC) of clinical P. aeruginosa isolate AUMC-Pa-2, strain AUMC-Pa-2) was 128 µM. The MIC ([1]; read-out: Antibiotic sensibility (MIC) of clinical P. aeruginosa isolate AUMC-Pa-3, strain AUMC-Pa-3) was 128 µM, the MIC ([1]; read-out: Antibiotic sensibility (MIC) of clinical P. aeruginosa isolate AUMC-Pa-4, strain AUMC-Pa-4) was 128 µM and the MIC ([1]; read-out: Antibiotic sensibility (MIC) of clinical P. aeruginosa isolate AUMC-Pa-5, strain AUMC-Pa-5) was 128 µM. For the same molecule, the MIC ([1]; read-out: Antibiotic sensibility (MIC) of clinical P. aeruginosa isolate AUMC-Pa-6, strain AUMC-Pa-6) was 128 µM, the MIC ([1]; read-out: Antibiotic sensibility (MIC) of clinical P. aeruginosa isolate HM-214, strain HM-214) was 128 µM and the MIC ([1]; read-out: Antibiotic sensibility (MIC) of clinical P. aeruginosa isolate NR-31040, strain NR-31040) was 128 µM. The MIC ([1]; read-out: Antibiotic sensibility (MIC) of clinical P. aeruginosa isolate NR-31041, strain NR-31041) was 128 µM, the FICI (P. aeruginosa NR-31040; [2]) was 0.281 and the “MICa: MIC of the antibiotic” value (P. aeruginosa NR-31040; [3]) was 128. The “MICac: MIC of the antibiotic” value (P. aeruginosa NR-31040; [4]) was 32, the FICI (P. aeruginosa PAK; [5]) was 0.188 and the “MICa: MIC of the antibiotic” value (P. aeruginosa PAK; [3]) was 128. The “MICac: MIC of the antibiotic” value (P. aeruginosa PAK; [4]) was 16, the FICI (P. aeruginosa NR-31041; [5]) was 0.188 and the “MICa: MIC of the antibiotic” value (P. aeruginosa NR-31041; [3]) was 128. For the same molecule, the “MICac: MIC of the antibiotic” value (P. aeruginosa NR-31041; [4]) was 16, the FICI (P. aeruginosa PA14; [2]) was 0.281 and the “MICa: MIC of the antibiotic” value (P. aeruginosa PA14; [3]) was 128. For the same molecule, the “MICac: MIC of the antibiotic” value (P. aeruginosa PA14; [4]) was 32, the FICI (P. aeruginosa ATCC27853; antibiotic + D-11 (MICb/MICbc 32/4)) was 0.156 and the “MICa: MIC of the antibiotic” value (P. aeruginosa ATCC27853; [3]) was 128. The “MICac: MIC of the antibiotic” value (P. aeruginosa ATCC27853; [4]) was 4.
